# Results published in ChEMBL document CHEMBL1142831, “Identification of a potent non-hydroxamate histone deacetylase inhibitor by mechanism-based drug design” (Bioorg Med Chem Lett, 2005).
# How the values were obtained:
# Histone deacetylase = assay: Inhibitory concentration against histone deacetylase of HeLa cells; format: cell-based, Homo sapiens
# [1] = target: Histone deacetylase (Homo sapiens) (UniProt Q13547+O15379+Q9UBN7+Q92769+Q9UQL6+Q8WUI4+Q9BY41+Q96DB2+P56524+Q9UKV0+Q969S8); conditions: HeLa, at 100 µM
# Description: Percentage inhibition against histone deacetylase of HeLa cells at 100 uM
IC50 (Histone deacetylase) [µM],inhibition [1] [%],Compound
11,88,O=C(CS)NCCCCC(=O)Nc1ccccc1
22,72,CC(=O)SCC(=O)NCCCCCC(=O)Nc1ccccc1
> 100,–,NCC(=O)NCCCCCC(=O)Nc1ccccc1
–,99,O=C(CS)NCCCCCC(=O)Nc1ccccc1
24,78,O=C(CCS)NCCCCCC(=O)Nc1ccccc1
230,33,CS(=O)(=O)CCCCCCC(=O)Nc1ccccc1
3,96,O=C(CS)NCCCCCCC(=O)Nc1ccccc1
7500,10,CS(=O)(=O)NCCCCCC(=O)Nc1ccccc1
> 100,–,O=C(CO)NCCCCCC(=O)Nc1ccccc1
